Patent US12240838B2, “Inhibiting agents for Bruton's tyrosine kinase” (BIOGEN MA INC., priority 2019, dated 2025)

Columns and labels:
[1] = target: T1, BTK (Homo sapiens (Human), UniProt Q06187); assay: In Vitro BTK Kinase Assay: BTK-POLYGAT-LS ASSAY; format: biochemical; conditions: ATP 10 μM, polyGAT 100 nM, BTK 0.25 nM, 30 minutes
Protocol: The purpose of the BTK in vitro assay is to determine compound potency against BTK through the measurement of IC50. […] The BTK kinase reaction was done in a black 96 well plate (costar 3694). For a typical assay, a 24 μL aliquot of a ATP/peptide master mix (final concentration; ATP 10 μM, polyGAT 100 nM) in kinase buffer (10 mM Tris-HCl pH 7.5, 10 mM MgCl2, 200 μM […], 5 mM DTT, 0.01% Triton X-100, and 0.2 mg/ml casein) is added to each well. Next, […] of a 4-fold, 40× compound titration in 100% DMSO solvent is added, followed by adding 15 μL of BTK enzyme mix in 1× kinase buffer (with a final concentration of 0.25 nM). The assay is incubated for 30 minutes before being stopped with […] of a 50 mM EDTA solution. Aliquots (5 μL) of the kinase reaction are transferred to a low volume white 384 well plate (Coming 3674), and […] of a 2× detection buffer (Invitrogen PV3574, with 4 nM Tb-PY20 antibody, Invitrogen PV3552) is added. The plate is covered and incubated for 45 minutes at room temperature. Time resolved fluorescence (TRF) on Molecular Devices M5 (332 nm excitation; 488 nm emission; 518 nm fluorescein emission) is measured.

[2] = target: T1, BTK; assay: In Vitro PD Assay in Human Whole Blood (pBTK assay); format: cell-based; conditions: 37° C. for 30 min, 50% inhibition of ECL signal
Protocol: Human heparinized venous blood was purchased from Bioreclamation, Inc. or SeraCare Life Sciences and shipped overnight. Whole blood was aliquoted into 96-well plate and “spiked” with serial dilutions of test compound in DMSO or with DMSO without drug. The final concentration of DMSO in all wells was 0.1%. The plate was incubated at 37° C. for 30 min. Lysis buffer containing protease and phosphatase inhibitors was added to the drug-containing samples and one of the DMSO-only samples (+PPi, high control), while lysis buffer containing protease inhibitors was added to the other DMSO-only samples (−PPi, low control). All of the lysed whole blood samples were subjected to the total BTK capture and phosphotyrosine detection method described in US20160311802, incorporated herein by reference.

T1 sequence (Q06187 whole entry): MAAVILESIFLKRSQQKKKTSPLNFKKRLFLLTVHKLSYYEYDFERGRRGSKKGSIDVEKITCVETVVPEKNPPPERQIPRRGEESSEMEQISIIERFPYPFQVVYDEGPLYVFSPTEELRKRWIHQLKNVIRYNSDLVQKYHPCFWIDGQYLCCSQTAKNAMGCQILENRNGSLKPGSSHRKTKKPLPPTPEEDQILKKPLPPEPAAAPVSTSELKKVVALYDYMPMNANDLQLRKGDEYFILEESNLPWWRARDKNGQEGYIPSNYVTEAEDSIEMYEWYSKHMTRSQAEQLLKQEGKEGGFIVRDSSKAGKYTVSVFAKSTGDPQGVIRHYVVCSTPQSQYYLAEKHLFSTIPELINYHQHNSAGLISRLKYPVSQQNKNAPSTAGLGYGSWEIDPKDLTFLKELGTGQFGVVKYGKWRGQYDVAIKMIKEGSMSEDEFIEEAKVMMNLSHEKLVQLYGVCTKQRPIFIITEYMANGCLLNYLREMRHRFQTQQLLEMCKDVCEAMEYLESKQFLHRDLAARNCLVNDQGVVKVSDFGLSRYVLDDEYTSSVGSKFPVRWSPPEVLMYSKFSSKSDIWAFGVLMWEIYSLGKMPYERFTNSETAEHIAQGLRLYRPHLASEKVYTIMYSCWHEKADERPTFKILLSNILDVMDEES

| Compound | IC50 [1] [nM] | IC50 [2] [nM] |
| --- | --- | --- |
| CC(C)(C)c1noc(C(=O)N[C@@H]2CCCCc3cc(-c4ccnc(NC(=O)[C@@H]5CC5(C)C)c4)ccc32)n1 [Compound 45, 3-(tert-butyl)-N-((R)-2-(2-((R)-2,2-dimethylcyclopropane-1-carboxamido)pyridin-4-yl)-6,7,8,9-tetrahydro-5H-benzo[7]annulen-5-yl)-1,2,4-oxadiazole-5-carboxamide] | 1 to 10 | > 10000 |
| CC(C)(C)c1nc(C(=O)N[C@@H]2CCCCc3cc(-c4ccnc(NC(=O)C5CC5)c4)ccc32)no1 [Compound 67, (R)-5-(tert-butyl)-N-(2-(2-(cyclopropanecarboxamido)pyridin-4-yl)-6,7,8,9-tetrahydro-5H-benzo[7]annulen-5-yl)-1,2,4-oxadiazole-3-carboxamide] | ≤ 1 | ≤ 100 |
| Cc1c(CNC(=O)c2noc(C(C)(C)C)n2)cc(F)c(-c2ccnc(NC(=O)C3CC3)c2)c1F [Compound 61, 5-(tert-butyl)-N-(4-(2-(cyclopropanecarboxamido)pyridin-4-yl)-3,5-difluoro-2-methylbenzyl)-1,2,4-oxadiazole-3-carboxamide] | ≤ 1 | 500 to 10000 |
| CC(C)(C)c1nc(C(=O)N[C@H]2CCCOc3cc(-c4ccnc(NC(=O)C5CC5)c4)ccc32)no1 [Compound 53, (S)-5-(tert-butyl)-N-(8-(2-(cyclopropanecarboxamido)pyridin-4-yl)-2,3,4,5-tetrahydrobenzo[b]oxepin-5-yl)-1,2,4-oxadiazole-3-carboxamide] | 10 to 1000 | > 10000 |
| CC(C)(C)c1noc(C(=O)N[C@@H]2CCCCc3cc(-c4ccnc(NC(=O)[C@@H]5C[C@H]5C(F)(F)F)c4)ccc32)n1 [Compound 52, 3-(tert-butyl)-N-((R)-2-(2-((1R,2R)-2-(trifluoromethyl)cyclo-propane-1-carboxamido)pyridin-4-yl)-6,7,8,9-tetrahydro-5H-benzo[7]annulen-5-yl)-1,2,4-oxadiazole-5-carboxamide] | ≤ 1 | 500 to 10000 |
| CC(C)(C)c1noc(C(=O)N[C@@H]2CCCCc3cc(-c4ccnc(NC(=O)C5CC5(F)F)c4)ccc32)n1 (stereo partly drawn) [Compound 58, 3-(tert-butyl)-N-((5R)-2-(2-(2,2-difluorocyclopropane-1-carboxamido)pyridin-4-yl)-6,7,8,9-tetrahydro-5H-benzo[7]annulen-5-yl)-1,2,4-oxadiazole-5-carboxamide] | ≤ 1 | 500 to 10000 |
| Cc1c(CNC(=O)c2nc(C(C)(C)C)no2)ccc(-c2ccnc(NC(=O)C3CC3)c2)c1F [Compound 94, 3-(tert-butyl)-N-(4-(2-(cyclopropanecarboxamido)pyridin-4-yl)-3-fluoro-2-methylbenzyl)-1,2,4-oxadiazole-5-carboxamide] | ≤ 1 | ≤ 100 |
| CC(C)(C)c1nc(C(=O)NCc2cc(F)c(-c3ccnc(NC(=O)C4CC4)c3)cc2Cl)no1 [Compound 104, 5-(tert-butyl)-N-(2-chloro-4-(2-(cyclopropanecarboxamido)pyridin-4-yl)-5-fluorobenzyl)-1,2,4-oxadiazole-3-carboxamide] | ≤ 1 | 100 to 500 |
| Cc1cc(-c2ccnc(NC(=O)C3CC3(F)F)c2)ccc1CNC(=O)c1noc(C(C)(C)C)n1 (stereo not shown) [Compound 49, 5-(tert-butyl)-N-(4-(2-(2,2-difluorocyclopropane-1-carboxamido)pyridin-4-yl)-2-methylbenzyl)-1,2,4-oxadiazole-3-carboxamide] | ≤ 1 | 500 to 10000 |
| Cc1cc(CNC(=O)c2noc(C(C)(C)C)n2)c(F)cc1-c1ccnc(NC(=O)C2CC2)c1 [Compound 102, 5-(tert-butyl)-N-(4-(2-(cyclopropanecarboxamido)pyridin-4-yl)-2-fluoro-5-methylbenzyl)-1,2,4-oxadiazole-3-carboxamide] | 10 to 1000 | 500 to 10000 |
| Cc1c(CNC(=O)c2noc(C(C)(C)C)n2)ccc(-c2ccnc(NC(=O)C3CC3)c2)c1Cl [Compound 84, 5-(tert-butyl)-N-(3-chloro-4-(2-(cyclopropanecarboxamido)pyridin-4-yl)-2-methylbenzyl)-1,2,4-oxadiazole-3-carboxamide] | ≤ 1 | 100 to 500 |
